Results from US9267116B2, “Amino acid dehydrogenase, and process for producing L-amino acid, 2-oxo acid or D-amino acid” (KANEKA CORPORATION, priority 2008, dated 2016).

How the values were obtained:
amino acid dehydrogenase = assay: Substrate specificity of the purified amino acid dehydrogenase (reductive amination of 2-oxo acids); type: biochemical, Rhodococcus qingshengii strain KNK2108; conditions: activity for phenylpyruvic acid = 100%; 30° C., pH 9.0; naphthylpyruvic and indolepyruvic acid by HPLC of the product formed in 30 minutes
Procedure: In the embodiments, the amino acid dehydrogenase activity of the polypeptide can be measured, for example, based on the rate of decline in the absorbance at a wavelength of 340 nm when 1.2 mL of 0.5 M NH3/NH4Cl buffer (pH 9.0), 0.2 mL of 0.1 M sodium carbonate buffer (pH 9.0) containing 3 mM NADH coenzyme, and 0.1 mL of an appropriately diluted enzyme solution are added to 1.5 mL of 0.1 M sodium carbonate buffer (pH 9.0) containing 10 mM phenylpyruvic acid as substrate and a reaction is run for 1 minute at 30° C. In the embodiments, the amino acid dehydrogenase activity was measured using this method unless indicated otherwise.
The activity of the amino acid dehydrogenase was measured based on the rate of decline in the absorbance at a wavelength of 340 nm when 1.2 mL of 0.5 M NH3/NH4Cl buffer (pH 9.0), 0.2 mL of 0.1 M sodium carbonate buffer (pH 9.0) that contained 3 mM NADH coenzyme, and 0.1 mL of the appropriately diluted enzyme solution were added to 1.5 mL of 0.1 M sodium carbonate buffer (pH 9.0) that contained 10 mM phenylpyruvic acid substrate and a reaction was carried out for 1 minute at 30° C. 1 unit is defined here as the quantity of enzyme that consumed 1 μmol NADH in 1 minute. The protein was quantified by the Bradford method using BSA as the reference protein.
The substrate specificity of the purified amino acid dehydrogenase was investigated. The enzyme activity was measured by using each substrate in place of the phenylpyruvic acid substrate in the procedure previously described for measuring the enzyme activity. In the case of the enzyme activity for naphthylpyruvic acid, 100 μL of the appropriately diluted enzyme solution was added to 100 μL of 0.1 M sodium carbonate buffer (pH 9.0) that contained 1.0 mg naphthylpyruvic acid, 12.3 mg ammonium sulfate, and 6.1 mg NADH and the increment in the 2-naphthylalanine produced in 30 minutes at 30° C. was determined by quantitation by HPLC. The HPLC analysis was run using the following: column: COSMOSIL 5C18-ARII (4.6 mm×250 mm, Nacalai Tesque, Inc.), eluent: 10 mM potassium phosphate buffer (pH 2.0)/acetonitrile=5/1, flow rate: 1.0 mL/min, column temperature: 40° C., detection: 210 nm. Here, 1 unit is defined as the quantity of enzyme that produces 1 μmol 2-naphthylalanine in 1 minute. In the case of the enzyme activity for indolepyruvic acid, 100 μL of the appropriately diluted enzyme solution was added to 100 μL of 0.1 M sodium carbonate buffer (pH 9.0) that contained 2.0 mg indolepyruvic acid, 26.0 mg ammonium sulfate, and 7.6 mg NADH and the increment in the L-tryptophan produced in 30 minutes at 30° C. was determined by quantitation by HPLC. The HPLC analysis was run using the following: column: CROWNPAK CR—(4.6 mm×150 mm, Daicel Chemical Industries, Ltd.), eluent: aqueous HClO4 (pH 2.0), flow rate: 1.0 mL/min, column temperature: 30° C., detection: 210 nm. Here, 1 unit is defined as the quantity of enzyme that produces 1 μmol L-tryptophan in 1 minute.

[1] = test system: Rhodococcus maris-derived phenylalanine dehydrogenase; conditions: cited from earlier work
[2] = biological target: Rhodococcus sp.-derived phenylalanine dehydrogenase (Rhodococcus sp, UniProt Q59771); conditions: cited from earlier work
Chain of Rhodococcus sp.-derived phenylalanine dehydrogenase (Q59771 whole entry): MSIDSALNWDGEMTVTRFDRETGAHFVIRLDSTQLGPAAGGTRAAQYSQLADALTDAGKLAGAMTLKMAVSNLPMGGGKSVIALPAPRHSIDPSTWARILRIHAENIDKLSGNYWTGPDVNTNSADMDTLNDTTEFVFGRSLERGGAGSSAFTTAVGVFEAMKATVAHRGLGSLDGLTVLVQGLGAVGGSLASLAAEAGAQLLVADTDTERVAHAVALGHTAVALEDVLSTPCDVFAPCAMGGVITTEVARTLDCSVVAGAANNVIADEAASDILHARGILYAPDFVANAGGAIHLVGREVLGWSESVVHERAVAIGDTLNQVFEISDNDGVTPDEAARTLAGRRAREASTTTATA

[3] = biological target: Thermoactinomyces intermedius-derived phenylalanine dehydrogenase (Thermoactinomyces intermedius, UniProt P22823); conditions: cited from earlier work
Chain of Thermoactinomyces intermedius-derived phenylalanine dehydrogenase (P22823 whole entry): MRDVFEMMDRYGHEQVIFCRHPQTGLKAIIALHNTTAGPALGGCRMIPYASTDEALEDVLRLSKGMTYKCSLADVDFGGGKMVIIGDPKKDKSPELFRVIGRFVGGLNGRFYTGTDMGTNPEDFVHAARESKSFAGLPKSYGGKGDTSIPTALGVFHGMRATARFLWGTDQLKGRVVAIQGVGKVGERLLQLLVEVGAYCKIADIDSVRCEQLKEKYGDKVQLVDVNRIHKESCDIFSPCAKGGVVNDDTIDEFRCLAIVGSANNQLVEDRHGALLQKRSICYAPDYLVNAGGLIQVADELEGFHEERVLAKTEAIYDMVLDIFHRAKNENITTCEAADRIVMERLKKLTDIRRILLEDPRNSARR

[4] = biological target: Bacillus sphaericus-derived phenylalanine dehydrogenase (Lysinibacillus sphaericus, UniProt P23307); conditions: cited from earlier work
Chain of Bacillus sphaericus-derived phenylalanine dehydrogenase (P23307 whole entry): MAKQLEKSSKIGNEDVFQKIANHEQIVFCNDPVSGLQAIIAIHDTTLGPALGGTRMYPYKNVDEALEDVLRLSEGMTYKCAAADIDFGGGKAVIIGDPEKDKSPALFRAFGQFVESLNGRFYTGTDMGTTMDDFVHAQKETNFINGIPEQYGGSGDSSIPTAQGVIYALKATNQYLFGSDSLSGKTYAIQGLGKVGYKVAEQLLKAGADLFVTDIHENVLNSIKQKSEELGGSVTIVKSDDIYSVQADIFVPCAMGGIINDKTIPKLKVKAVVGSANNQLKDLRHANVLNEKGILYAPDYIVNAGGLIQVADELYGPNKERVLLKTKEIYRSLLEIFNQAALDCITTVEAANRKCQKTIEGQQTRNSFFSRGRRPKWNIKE

[5] = test system: Microbacterium sp.-derived phenylalanine dehydrogenase; conditions: cited from earlier work
[6] = biological target: T1, Sporosarcina ureae-derived phenylalanine dehydrogenase (Sporosarcina ureae, UniProt P97014); conditions: cited from earlier work
T1 sequence (P97014 1-379): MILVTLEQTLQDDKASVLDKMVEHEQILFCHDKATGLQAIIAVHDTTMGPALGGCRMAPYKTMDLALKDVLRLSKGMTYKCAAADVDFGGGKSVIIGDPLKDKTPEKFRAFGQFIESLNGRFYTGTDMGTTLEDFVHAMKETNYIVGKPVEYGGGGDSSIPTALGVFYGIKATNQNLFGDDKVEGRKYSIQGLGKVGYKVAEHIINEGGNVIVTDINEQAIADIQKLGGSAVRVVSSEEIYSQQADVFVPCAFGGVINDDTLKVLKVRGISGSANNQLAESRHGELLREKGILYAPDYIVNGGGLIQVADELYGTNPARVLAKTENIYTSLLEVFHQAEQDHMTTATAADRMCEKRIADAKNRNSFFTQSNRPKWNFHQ

Compound | Relative activity (%) (amino acid dehydrogenase) | enzymatic activity taking the enzymatic activity for phenylpyruvic acid to be 100 [4] | also measured
CSCCC(=O)C(=O)O [2-Oxo-4-(methylthio)butanoic acid] | 34.6 | – | enzymatic activity taking the enzymatic activity for phenylpyruvic acid to be 100 [1]: 9
CC(C)CC(=O)C(=O)O [2-Oxo-4-methylvaleric acid] | 3.5 | – | –
O=C(O)C(=O)Cc1ccc(O)cc1 [4-Hydroxyphenylpyruvic acid] | 96.3 | – | enzymatic activity taking the enzymatic activity for phenylpyruvic acid to be 100 [2]: 5; enzymatic activity taking the enzymatic activity for phenylpyruvic acid to be 100 [3]: 0
O=C(O)C(=O)CCc1ccccc1 [Homophenylpyruvic acid] | 19.1 | 3.4 | enzymatic activity taking the enzymatic activity for phenylpyruvic acid to be 100 [5]: 0.1
O=C(O)C(=O)Cc1c[nH]c2ccccc12 [Indolepyruvic acid] | 19.7 | 0.39 | enzymatic activity taking the enzymatic activity for phenylpyruvic acid to be 100 [2]: 3; enzymatic activity taking the enzymatic activity for phenylpyruvic acid to be 100 [6]: 0.73; enzymatic activity taking the enzymatic activity for phenylpyruvic acid to be 100 [1]: 5
O=C(O)C(=O)Cc1ccccc1 [Phenylpyruvic acid] | 100.0 | – | –
Naphthylpyruvic acid | 38.8 | 0.46 | –
